Patent US8828922B2, “HSP therapy in conjunction with a low antigenicity diet” (Andromeda Biotech Ltd., priority 2004, dated 2014)
No end group written: not given here.

Legend:
[1] = test system: NOD mice; conditions: subcutaneous administration; cited from earlier work
[2] = test system: spleen-derived lymphocytes; conditions: splenocytes from DiaPep277-treated rats; stimulation 5 or 25 microgram/ml; planned second study
Procedure: In this study, the preventive dose or control (PBS) is administered on days 4-14 to large groups of rats (30 per treatment arm), and followed up for signs of diabetes, as above. In addition, five rats of each group are sacrificed at 2 weeks, 1, 2, 3, 4 and 5 months of age, and at each time point the spleen is removed to determine the cytokine profile. Determination of the cytokine profile is performed by subjecting the spleen-derived lymphocytes to the following stimuli: None; Concanavalin A (1 microgram/ml); DiaPep277 (5 microgram/ml); DiaPep277 (25 microgram/ml).

[3] = test system: BB-DP rats; test: Diabetes incidence and onset after neonatal oral DiaPep277 with conventional or HC diet; format: in vivo, rat
Procedure: Experimental set-up: Group-housed BB-DP rats (breeding colony, Groningen, the Netherlands) were orally inoculated once per day with either placebo (aqua dist.) or Diapep277 at days 4, 5, 6 and 7 of life (black box in FIG. 1). Animals were treated in compliance with the principles of laboratory care (NIH publication no. 85-23, revised 1985) and the Dutch law on experimental animal care. Inoculation was done via a silicon-tube swallowed by the neonate and fluid was inoculated directly into the stomach. DiaPep277 was supplied by Peptor Ltd., Rehovot, Israel. It is an analog of the native 437-460 sequence of human hsp60, in which the existing cystein residues at positions 442 and 447 were replaced by valine, for better chemical stabilization. Per inoculation 300 μg/rat of Diapep277 in a volume of 300 μl was administered. At the age of 21 days (gray box in FIG. 1) rats were weaned either on a conventional, cereal-based diet (Hope Farms, rodent diet no. Rmh-B2181, Woerden, Netherlands) or on HC-diet, a modification of the AIN-93G diet containing 20% hydrolyzed casein (Pancase S; Redstar Bioproducts, Tara, Canada) as the source of aminoacids, 53% corn starch, 12% sucrose, 5% corn oil, 5% cellulose-type fiber (Solka-Floc; Teklad, Madison, Wis.) (Visser J. et al., 2003, Metabolism 52, 333-337, Scott F W et al., 1997, Diabetes 46, 589-598). In this study both sexes were used. In our colony 80% to 90% of the BB-DP rats spontaneously develop diabetes before the age of 130 days, with no gender differences. Body weights were measured three times per week. […] The degree of islet infiltration was measured using a Zeiss microscope and was rated as previously described (Visser J. et al., 2003, Metabolism 52, 333-337) with the addition of score 5 which is developed in our lab, to control for completely destroyed islets in severe insulitis. Per pancreas section, an average histological insulitis score was calculated by adding up the score of each islet and dividing it by the total number of islets counted. […]

VLGGGCALLRCIPALDSLTPANED (cysteine pairing not given here) [p277, residues 437-460 of human Hsp60]
development of diabetes (in words) [1]: prevented the development of diabetes

VLGGGVALLRVIPALDSLTPANED [DiaPep277]
cytokine response of splenocytes on DiaPep277 stimulation (in words) [2]: focused Th2/Treg response
diabetes incidence ([3]; BB-DP rats, oral 300 μg/rat/day at days 4-7 of life, diet from weaning (day 21), followed to 140 days): 69%
improved chance of not developing diabetes ([3]; all animals receiving DiaPep277, endpoint analysis, χ^2): 2.2 fold
protection against diabetes (in words) ([3]; neonatal oral administration alone, conventional diet): did not lead to significant protection
